Here are results for 43 compounds from patent publication US20250262201A1, “COMPOUNDS AND METHODS USEFUL FOR STABILIZING PHENYLALANINE HYDROXYLASE MUTATIONS” (Agios Pharmaceuticals, Inc., priority 2022, published 2025).

The assay deals with T1, human PAH with the R408W mutation (Homo sapiens, UniProt P00439, R408W).
T1 construct: expressed in transfected cells
T1 sequence (P00439 1-452 R408W): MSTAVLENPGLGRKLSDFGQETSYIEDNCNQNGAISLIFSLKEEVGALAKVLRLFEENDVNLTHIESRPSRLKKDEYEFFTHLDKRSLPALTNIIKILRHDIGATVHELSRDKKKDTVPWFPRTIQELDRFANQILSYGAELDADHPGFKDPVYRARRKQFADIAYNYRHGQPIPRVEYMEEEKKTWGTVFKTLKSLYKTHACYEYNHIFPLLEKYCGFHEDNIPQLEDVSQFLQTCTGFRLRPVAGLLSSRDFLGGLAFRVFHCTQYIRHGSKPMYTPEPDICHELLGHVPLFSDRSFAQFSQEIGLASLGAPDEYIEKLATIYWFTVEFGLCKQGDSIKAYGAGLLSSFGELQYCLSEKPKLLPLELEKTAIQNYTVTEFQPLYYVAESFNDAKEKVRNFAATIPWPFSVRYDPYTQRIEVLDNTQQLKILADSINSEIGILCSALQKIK
The assay can be described thus: Cell Based Phenylalanine Flux Assay. Also noted: scale not given here. Conditions: 13C-Tyrosine by LC-MS, average where tested multiple times.

Where [1] appears, read: A375 cells expressing human R408W PAH, 24 hrs compound incubation, read-out: AC50.
[2] abbreviates: A375 R408W cells, 24 hrs with compound, then 20 μM sepiapterin and 800 μM 13C9,15N-Phenylalanine for 4 hours, read-out: AC50.
Setting [3] is: A375 R408W cells, 24 hrs with compound, then 20 μM sepiapterin and 800 μM 13C9,15N-Phenylalanine for 4 hours.

The structures appear in SMILES notation. Like-named read-outs stand apart in the source and are kept apart here. Some results are limits rather than exact numbers.

Consider `Cn1nccc1-c1nnc(C(=O)N2CCc3[nH]cnc3[C@H]2c2ncc3ccccc3n2)o1` [Example 203, (S)-(5-(1-methyl-1H-pyrazol-5-yl)-1,3,4-oxadiazol-2-yl)(4-(quinazolin-2-yl)-6,7-dihydro-1H-imidazo[4,5-c]pyridin-5(4H)-yl)methanone], for which, under setting [1], the half-maximal activity concentration (AC50) is below 0.5 µM.
For the compound `O=C(c1nnc(-c2cc(C(F)(F)F)ccn2)o1)N1CCc2[nH]cnc2[C@@H]1c1ncc2ccccc2n1` [Example 174, (R)-(4-(quinazolin-2-yl)-6,7-dihydro-1H-imidazo[4,5-c]pyridin-5(4H)-yl)(5-(4-(trifluoromethyl)pyridin-2-yl)-1,3,4-oxadiazol-2-yl)methanone], the AC50 under setting [1] fell in the range of 1 to 5 µM.
In the case of `CN(C)Cc1ccc2c(C(=O)N3CCc4[nH]cnc4C3c3cc4ccccc4nn3)cnn2c1` (stereo not shown), under setting [2], the AC50 is above 5 µM.
Take `O=C(c1cn(-c2ccccn2)nc1Cl)N1CCc2[nH]cnc2C1c1ccc2ccccc2n1` (stereo in doubt) [Example 109, (R)-(3-chloro-1-(pyridin-2-yl)-1H-pyrazol-4-yl)(4-(quinolin-2-yl)-6,7-dihydro-1H-imidazo[4,5-c]pyridin-5(4H)-yl)methanone]: the AC50 under setting [1] lay in the range of 1 to 5 µM.
For the compound `O=C(c1cnn2cc(N3CCC(O)CC3)ccc12)N1CCc2[nH]cnc2C1c1ncc2ccccc2n1` (stereo not shown), the AC50 under setting [2] was in the range of 1 to 5 µM.
`CC1CN(C(=O)c2nnc(N3CC(F)C3)o2)C(c2cc3ccccc3cn2)c2nc[nH]c21` (stereo not shown): the AC50 under setting [2] is above 5 µM.
Consider `O=C(c1nnc(-c2cnn(C3CCC3)c2)o1)N1CCc2[nH]cnc2[C@@H]1c1ncc2ccccc2n1` [Example 188, (R)-(5-(1-cyclobutyl-1H-pyrazol-4-yl)-1,3,4-oxadiazol-2-yl)(4-(quinazolin-2-yl)-6,7-dihydro-1H-imidazo[4,5-c]pyridin-5(4H)-yl)methanone], for which the AC50 under setting [1] was in the range of 1 to 5 µM.
For the compound `O=C(c1nnc(-c2c(F)cccc2F)o1)N1CCc2[nH]cnc2[C@H]1c1cc2ccccc2cn1` [Example 334, (R)-(5-(2,6-difluorophenyl)-1,3,4-oxadiazol-2-yl)(4-(isoquinolin-3-yl)-6,7-dihydro-1H-imidazo[4,5-c]pyridin-5(4H)-yl)methanone], the half-maximal activity concentration (AC50) under setting [1] was below 0.5 µM.
Consider `O=C(c1nnc(-c2ccc(OC(F)(F)F)cn2)o1)N1CCc2[nH]cnc2[C@H]1c1ncc2ccccc2n1` [Example 195, (S)-(4-(quinazolin-2-yl)-6,7-dihydro-1H-imidazo[4,5-c]pyridin-5(4H)-yl)(5-(5-(trifluoromethoxy)pyridin-2-yl)-1,3,4-oxadiazol-2-yl)methanone], for which, under setting [1], the AC50 was below 0.5 µM.
With `CC(O)c1nc(Cl)c(C(=O)N2CCc3[nH]cnc3[C@@H]2c2ccc3ccccc3n2)o1` (single isomer, unassigned) [Example 136], under setting [1], the AC50 lay in the range of 1 to 5 µM.
`O=C(c1cnc(C(F)(F)F)s1)N1CCc2[nH]cnc2C1c1cn2ccccc2n1` (stereo not shown): under setting [2], the AC50 is above 5 µM.
`O=C(c1oc(-c2cccnc2)nc1C(F)F)N1CCc2[nH]cnc2C1c1ncc2ccccc2n1` (stereo not shown): the AC50 entry under setting [3] was “E, E”.
With `Cc1nc(-c2ccccn2)oc1C(=O)N1CCc2[nH]cnc2C1c1cn2ccccc2n1` (stereo not shown), the AC50 under setting [2] was above 5 µM.
The same measure, in the same setting: as for `O=C(c1oc(-c2ccccn2)nc1C1CC1)N1CCCc2[nH]cnc2C1c1cn2ccccc2n1` (stereo not shown), the figure is above 5 µM; as for `O=C(c1ocnc1C(F)F)N1CCc2[nH]cnc2C1c1cc2ccccc2nn1` (stereo not shown), 1 to 5 µM.
As to `CC1CN(C(=O)c2nnc(NC3CC3)o2)C(c2cc3ccccc3cn2)c2nc[nH]c21` (single isomer, unassigned), under setting [2], the AC50 was above 5 µM.
`C[C@H]1CN(C(=O)c2oc(-c3ccccn3)nc2C2CC2)[C@H](c2cc3ccccc3cn2)c2nc[nH]c21` [Example 407, (4-cyclopropyl-2-(pyridin-2-yl)oxazol-5-yl)((4R,7S)-4-(isoquinolin-3-yl)-7-methyl-6,7-dihydro-1H-imidazo[4,5-c]pyridin-5(4H)-yl)methanone]: under setting [1], the AC50 is below 0.5 µM.
Same read-out and setting: to `Cc1nc(-c2ccccn2)oc1C(=O)N1CCc2[nH]cnc2[C@@H]1c1cc2ccccc2nn1` [Example 207] belongs above 5 µM.
`O=C(c1nnc(N2CCC(F)CC2)o1)N1CCc2[nH]cnc2C1c1ccc2ccccc2n1` (stereo not shown): the AC50 under setting [2] is above 5 µM.
In the case of `FC(F)c1nnc(N2CCc3[nH]cnc3[C@H]2c2cn3ccccc3n2)o1` [Example 230, (R)-2-(difluoromethyl)-5-(4-(imidazo[1,2-a]pyridin-2-yl)-6,7-dihydro-1H-imidazo[4,5-c]pyridin-5(4H)-yl)-1,3,4-oxadiazole], the concentration at half-maximal activity (AC50) under setting [1] fell in the range of 0.5 to 1 µM.
In the case of `O=C(c1cnco1)N1CCc2[nH]cnc2C1c1cn2ccccc2n1` (stereo not shown), the concentration at half-maximal activity (AC50) under setting [2] was in the range of 1 to 5 µM.
For `COCCNc1nnc(C(=O)N2CCc3[nH]cnc3C2c2ccc3ccccc3n2)o1` (stereo not shown), the AC50 under setting [2] was 1 to 5 µM.
Regarding `O=C(c1oc(-c2ccccn2)nc1C1CC1)N1CCCc2[nH]cnc2C1c1ccc2ccccc2n1` (stereo not shown), the AC50 under setting [2] is above 5 µM.
Same read-out and setting: as for `O=C(c1nnc(C2CC(F)(F)C2)o1)N1CCc2[nH]cnc2C1c1ccc2ccccc2n1` (stereo not shown), the figure is above 5 µM.
For `CC(C)(O)c1nc(C2CC2)c(C(=O)N2CCc3[nH]cnc3[C@H]2c2cc3ccccc3cn2)o1` [Example 378, (R)-(4-cyclopropyl-2-(2-hydroxypropan-2-yl)oxazol-5-yl)(4-(isoquinolin-3-yl)-6,7-dihydro-1H-imidazo[4,5-c]pyridin-5(4H)-yl)methanone], the half-maximal activity concentration (AC50) under setting [1] was below 0.5 µM.
With `C[C@H]1CN(C(=O)c2cnc(C(C)(C)O)o2)[C@H](c2cc3ccccc3cn2)c2nc[nH]c21` [Example 395, (2-(2-hydroxypropan-2-yl)oxazol-5-yl)((4R,7S)-4-(isoquinolin-3-yl)-7-methyl-6,7-dihydro-1H-imidazo[4,5-c]pyridin-5(4H)-yl)methanone], the concentration at half-maximal activity (AC50) under setting [1] lay within 0.5 to 1 µM.
Take `O=C(c1nnc(-c2ncccn2)o1)N1CCc2[nH]cnc2C1c1ncc2ccccc2n1` (stereo not shown): the concentration at half-maximal activity (AC50) under setting [2] is 1 to 5 µM.
Consider `O=C(c1nnc(N2CCC(F)CC2)o1)N1CCc2[nH]cnc2[C@H]1c1cc2ccccc2cn1` [Example 425, (R)-(5-(4-fluoropiperidin-1-yl)-1,3,4-oxadiazol-2-yl)(4-(isoquinolin-3-yl)-6,7-dihydro-1H-imidazo[4,5-c]pyridin-5(4H)-yl)methanone], for which the half-maximal activity concentration (AC50) under setting [1] was below 0.5 µM.
For the compound `Cc1nc(NC2CC2)oc1C(=O)N1CCc2[nH]cnc2C1c1ccc2ccccc2n1` (stereo not shown), the AC50 under setting [2] lay within 1 to 5 µM.
As for `Cn1ncnc1C(=O)N1CCc2[nH]cnc2[C@@H]1c1ncc2ccccc2n1` [Example 183, (R)-(1-methyl-1H-1,2,4-triazol-5-yl)(4-(quinazolin-2-yl)-6,7-dihydro-1H-imidazo[4,5-c]pyridin-5(4H)-yl)methanone], the AC50 under setting [1] fell in the range of 1 to 5 µM.
On the same count and under the same terms, as for `O=C(c1cnc(-c2cnn(CC(F)(F)F)c2)s1)N1CCc2[nH]cnc2[C@@H]1c1cc2ccccc2cn1` [Example 307, (S)-(4-(isoquinolin-3-yl)-6,7-dihydro-1H-imidazo[4,5-c]pyridin-5(4H)-yl)(2-(1-(2,2,2-trifluoroethyl)-1H-pyrazol-4-yl)thiazol-5-yl)methanone], the figure is above 5 µM.
For the compound `Cn1ccc(C(=O)N2CCc3[nH]cnc3C2c2ccc3ccccc3n2)n1` (stereo not shown), the AC50 under setting [2] was 1 to 5 µM.
For `O=C(c1nnc(NC2CC2)o1)N1CCc2[nH]cnc2C1c1ccc2ccccc2n1` (stereo not shown), the concentration at half-maximal activity (AC50) under setting [2] is above 5 µM.
Regarding `O=C(Cc1cscn1)N1CCc2[nH]cnc2C1c1cn2ccccc2n1` (stereo not shown), the AC50 under setting [2] was 1 to 5 µM.
On to `Cc1nnc(C(=O)N2CC(C)c3[nH]cnc3C2c2cc3ccccc3cn2)o1` [(4S, 7R) diastereomer of 3-[7-methyl-5-(5-methyl-1,3,4-oxadi], for which the concentration at half-maximal activity (AC50) result under setting [3] is reported as “E, E”.
As for `Cc1nc([C@@H](C)O)oc1C(=O)N1CCc2[nH]cnc2C1c1ccc2ccccc2n1` (stereo in doubt) [Example 111, (2-((R)-1-hydroxyethyl)-4-methyloxazol-5-yl)((R)-4-(quinolin-2-yl)-6,7-dihydro-1H-imidazo[4,5-c]pyridin-5(4H)-yl)methanone], the concentration at half-maximal activity (AC50) under setting [1] was in the range of 0.5 to 1 µM.
`CC1CN(C(=O)c2nnc(N3CC(F)C3)o2)C(c2cc3ccccc3cn2)c2nc[nH]c21` [(4S, 7S) diastereomer of 3-[5-[5-(3-fluoroazetidin-1-yl)-1,3]: under setting [2], the concentration at half-maximal activity (AC50) is above 5 µM.
For `O=C(c1nnc(-c2ccccn2)o1)N1CCCc2[nH]cnc2C1c1ccc2ccccc2n1` (stereo not shown), the AC50 under setting [2] is above 5 µM.
Take `O=C(c1oc(C2CC(F)(F)C2)nc1C(F)F)N1CCc2[nH]cnc2C1c1ccc2ccccc2n1` (stereo in doubt) [Example 71, (R)-(2-(3,3-difluorocyclobutyl)-4-(difluoromethyl)oxazol-5-yl)(4-(quinolin-2-yl)-6,7-dihydro-1H-imidazo[4,5-c]pyridin-5(4H)-yl)methanone]: under setting [1], the AC50 was below 0.5 µM.
For the compound `CC(C)(O)c1ccc2c(C(=O)N3CCc4[nH]cnc4C3c3ccc4ccccc4n3)cnn2c1` (stereo not shown), the AC50 under setting [2] is above 5 µM.
For the compound `Cc1ncoc1C(=O)N1C[C@@H](C)c2[nH]cnc2[C@@H]1c1cc2ccccc2cn1` (single isomer, unassigned), under setting [3], the concentration at half-maximal activity (AC50) result was “E, E”.
Take `CN1CCN(c2nnc(C(=O)N3CCc4[nH]cnc4C3c3ccc4ccccc4n3)o2)CC1` (stereo not shown): under setting [2], the AC50 is above 5 µM.
Turning to `Cn1cc(-c2nnc(C(=O)N3CCc4[nH]cnc4[C@H]3c3ncc4ccccc4n3)o2)cn1` [Example 143, (S)-(5-(1-methyl-1H-pyrazol-4-yl)-1,3,4-oxadiazol-2-yl)(4-(quinazolin-2-yl)-6,7-dihydro-1H-imidazo[4,5-c]pyridin-5(4H)-yl)methanone], the AC50 under setting [1] is 0.5 to 1 µM.

As usually defined, the AC50 is the midpoint of the concentration-response curve, whichever way the signal moves.
